From US9763445B2, “Safened herbicidal compositions comprising a pyridine carboxylic acid herbicide” (Dow AgroSciences, LLC, priority 2014, dated 2017)

Legend:
[1] = test system: spring wheat (TRZAS); assay: Postemergence greenhouse trial, % visual injury on spring wheat; format: in vivo, Triticum aestivum
How it was run: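 Injury was scored visually (0 = none, 100 = complete kill) 20–22 d after track-sprayer application at 187 L/ha, compared with solvent-sprayed controls. Test plants at the 2–3 true leaf stage; herbicide (g ae/ha) plus cloquintocet-mexyl safener (g ai/ha) in crop-oil-containing spray; expected mixture response by Colby.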

[2] = test system: winter rape (BRSNW); assay: Postemergence greenhouse trial, % visual injury on winter rape; format: in vivo, Brassica napus; conditions: for % visual injury, Ob: BRSNW
How it was run: (§1)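 Visual injury, 0 (none) to 100 (complete kill), rated 20-22 d after overhead track-sprayer application at 187 L/ha; Colby's equation gave expected mixture responses. Herbicide (g ae/ha) and cloquintocet-mexyl safener (g ai/ha) diluted in aqueous 1.5% v/v Agri-dex, applied to weeds at 2–3 true leaves.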

[3] = test system: thistle (CIRAR); assay: Postemergence greenhouse trial, % visual injury on thistle; format: in vivo, Cirsium arvense; conditions: for % visual injury, Ob: CIRAR
How it was run: as §1

CCCCCC(C)OC(=O)COc1ccc(Cl)c2cccnc12 (stereo not shown) [CQC-m, cloquintocet-mexyl, reference compound]
0%: % visual injury, Ob ([1]; TRZAS, 4.375 g/ha, applied alone) | % visual injury, Ob ([1]; TRZAS, 8.75 g/ha, applied alone) | % visual injury, Ob ([1]; TRZAS, 17.5 g/ha, applied alone) | % visual injury, Ob ([1]; TRZAS, 35 g/ha, applied alone) | % visual injury, Ob ([1]; TRZAS, 70 g/ha, applied alone) | % visual injury, Ob ([1]; TRZAS, compound 0, CQC-m 4.375 g/ha) | % visual injury, Ob ([1]; TRZAS, compound 0, CQC-m 8.75 g/ha) | % visual injury, Ob ([1]; TRZAS, compound 0, CQC-m 17.5 g/ha) | % visual injury, Ob ([1]; TRZAS, compound 0, CQC-m 35 g/ha) | % visual injury, Ob ([1]; TRZAS, compound 0, CQC-m 70 g/ha) | % visual injury, Ob ([1]; TRZAS, compound 0 g/ha, CQC-m 4.375 g/ha) | % visual injury, Ob ([1]; TRZAS, compound 0 g/ha, CQC-m 8.75 g/ha) | % visual injury, Ob ([1]; TRZAS, compound 0 g/ha, CQC-m 17.5 g/ha) | % visual injury, Ob ([1]; TRZAS, compound 0 g/ha, CQC-m 35 g/ha) | % visual injury, Ob ([1]; TRZAS, compound 0 g/ha, CQC-m 70 g/ha) | % visual injury, observed (Ob) ([1]; TRZAS, compound 8 0 + CQC-m 4.375 g/ha) | % visual injury, observed (Ob) ([1]; TRZAS, compound 8 0 + CQC-m 8.75 g/ha) | % visual injury, observed (Ob) ([1]; TRZAS, compound 8 0 + CQC-m 17.5 g/ha) | % visual injury, observed (Ob) ([1]; TRZAS, compound 8 0 + CQC-m 35 g/ha) | % visual injury, observed (Ob) ([1]; TRZAS, compound 8 0 + CQC-m 70 g/ha) | % visual injury, Ob ([1]; alone, 4.375 g/ha) | % visual injury, Ob ([1]; alone, 8.75 g/ha) | % visual injury, Ob ([1]; alone, 17.5 g/ha) | % visual injury, Ob ([1]; alone, 20 g/ha) | % visual injury, Ob ([1]; alone, 35 g/ha) | % visual injury, Ob ([1]; alone, 40 g/ha) | % visual injury, Ob ([1]; alone, 70 g/ha) | % visual injury, Ob ([1]; alone, 80 g/ha) | % visual injury, Ob ([2]; 4.375 g/ha, applied alone) | % visual injury, Ob ([2]; 8.75 g/ha, applied alone) | % visual injury, Ob ([2]; 17.5 g/ha, applied alone) | % visual injury, Ob ([2]; 35 g/ha, applied alone) | % visual injury, Ob ([2]; 70 g/ha, applied alone) | % visual injury, Ob ([2]; compound 0, CQC-m 4.375 g/ha) | % visual injury, Ob ([2]; compound 0, CQC-m 8.75 g/ha) | % visual injury, Ob ([2]; compound 0, CQC-m 17.5 g/ha) | % visual injury, Ob ([2]; compound 0, CQC-m 35 g/ha) | % visual injury, Ob ([2]; compound 0, CQC-m 70 g/ha) | % visual injury, Ob ([2]; compound 0 g/ha, CQC-m 4.375 g/ha) | % visual injury, Ob ([2]; compound 0 g/ha, CQC-m 8.75 g/ha) | % visual injury, Ob ([2]; compound 0 g/ha, CQC-m 17.5 g/ha) | % visual injury, Ob ([2]; compound 0 g/ha, CQC-m 35 g/ha) | % visual injury, Ob ([2]; compound 0 g/ha, CQC-m 70 g/ha) | plant injury at 4.375 g/ha ([2]; Brassica napus, post-emergence, alone, 4.375 g/ha, read-out: % visual injury, Ob) | plant injury at 8.75 g/ha ([2]; Brassica napus, post-emergence, alone, 8.75 g/ha, read-out: % visual injury, Ob) | plant injury at 17.5 g/ha ([2]; Brassica napus, post-emergence, alone, 17.5 g/ha, read-out: % visual injury, Ob) | plant injury at 35 g/ha ([2]; Brassica napus, post-emergence, alone, 35 g/ha, read-out: % visual injury, Ob) | plant injury at 70 g/ha ([2]; Brassica napus, post-emergence, alone, 70 g/ha, read-out: % visual injury, Ob) | % visual injury, Ob ([3]; 4.375 g/ha, applied alone) | % visual injury, Ob ([3]; 8.75 g/ha, applied alone) | % visual injury, Ob ([3]; 17.5 g/ha, applied alone) | % visual injury, Ob ([3]; 35 g/ha, applied alone) | % visual injury, Ob ([3]; 70 g/ha, applied alone) | % visual injury, Ob ([3]; compound 0, CQC-m 4.375 g/ha) | % visual injury, Ob ([3]; compound 0, CQC-m 8.75 g/ha) | % visual injury, Ob ([3]; compound 0, CQC-m 17.5 g/ha) | % visual injury, Ob ([3]; compound 0, CQC-m 35 g/ha) | % visual injury, Ob ([3]; compound 0, CQC-m 70 g/ha) | pest or weed control at 4.375 g/ha ([3]; Cirsium arvense, post-emergence, alone, 4.375 g/ha, read-out: % visual injury, Ob) | pest or weed control at 8.75 g/ha ([3]; Cirsium arvense, post-emergence, alone, 8.75 g/ha, read-out: % visual injury, Ob) | pest or weed control at 17.5 g/ha ([3]; Cirsium arvense, post-emergence, alone, 17.5 g/ha, read-out: % visual injury, Ob)
